Laboratory results taken from the supplement of paper PMC13380429.

What was measured:
Settings in all cases: 72 h
Caco-2 [1] = assay: cell viability relative to DMSO; higher = less toxic
Calu-3 [2] = assay: as above
HepG2 [3] = assay: as above
U2OS [4] = assay: as above
Vero E6 [5] = assay: as above
Caco-2 [6] = assay: relative viability EC50 (midpoint between 100% and the lowest measured viability); higher = less toxic
Calu-3 [7] = assay: as above
HepG2 [8] = assay: as above
U2OS [9] = assay: as above
Vero E6 [10] = assay: as above
Caco-2 [11] = assay: drug sensitivity score (DSS) for viability; higher = more toxic; extreme values may be limits of the assay
Calu-3 [12] = assay: as above
HepG2 [13] = assay: as above
U2OS [14] = assay: as above
Vero E6 [15] = assay: as above

Row | SMILES | cell viability (Caco-2 [1]; 1 nM) [%] | cell viability (Caco-2 [1]; 10 nM) [%] | cell viability (Caco-2 [1]; 100 nM) [%] | cell viability (Caco-2 [1]; 1000 nM) [%] | cell viability (Caco-2 [1]; 10000 nM) [%] | cell viability (Calu-3 [2]; 1 nM) [%] | cell viability (Calu-3 [2]; 10 nM) [%] | cell viability (Calu-3 [2]; 100 nM) [%] | cell viability (Calu-3 [2]; 1000 nM) [%] | cell viability (Calu-3 [2]; 10000 nM) [%] | cell viability (HepG2 [3]; 1 nM) [%] | cell viability (HepG2 [3]; 10 nM) [%] | cell viability (HepG2 [3]; 100 nM) [%] | cell viability (HepG2 [3]; 1000 nM) [%] | cell viability (HepG2 [3]; 10000 nM) [%] | cell viability (U2OS [4]; 1 nM) [%] | cell viability (U2OS [4]; 10 nM) [%] | cell viability (U2OS [4]; 100 nM) [%] | cell viability (U2OS [4]; 1000 nM) [%] | cell viability (U2OS [4]; 10000 nM) [%] | cell viability (Vero E6 [5]; 1 nM) [%] | cell viability (Vero E6 [5]; 10 nM) [%] | cell viability (Vero E6 [5]; 100 nM) [%] | cell viability (Vero E6 [5]; 1000 nM) [%] | cell viability (Vero E6 [5]; 10000 nM) [%] | relative viability EC50 (Caco-2 [6]) [µM] | relative viability EC50 (Calu-3 [7]) [µM] | relative viability EC50 (HepG2 [8]) [µM] | relative viability EC50 (U2OS [9]) [µM] | relative viability EC50 (Vero E6 [10]) [µM] | drug sensitivity score (Caco-2 [11]) | drug sensitivity score (Calu-3 [12]) | drug sensitivity score (HepG2 [13]) | drug sensitivity score (U2OS [14]) | drug sensitivity score (Vero E6 [15])
1 | CC(C)[C@H]1[C@@H]2CC[C@@H](C2)[C@@H]1N | 96.8 | 98.9 | 106 | 100 | 83.9 | 102 | 99.7 | 98.6 | 96 | 104 | 89.5 | 95 | 93.6 | 97.4 | 90.1 | 103 | 102 | 98 | 93.6 | 92.1 | 89.6 | 99.3 | 88.5 | 95.3 | 108 | > 10 | > 10 | > 10 | > 10 | > 10 | 0.3 | 0 | 0 | 0 | 0
2 | O[C@H]1[C@H]2[C@H](O)CCCN2C[C@H]1O [swainsonine] | 79 | 95.1 | 86.8 | 81.5 | 81.7 | 97.5 | 104 | 91.1 | 88.7 | 87.1 | 110 | 96.4 | 90.9 | 88.9 | 94.2 | 95.8 | 103 | 98.5 | 105 | 92.3 | 112 | 97 | 97.5 | 83.7 | 88.1 | > 10 | > 10 | > 10 | > 10 | > 10 | 0 | 1.3 | 0.5 | 0 | 2
3 | COc1ccccc1N1CCN(CCN2C(=O)c3ccccc3C(C)(C)C2=O)CC1 [ARC-239] | 102 | 101 | 91.3 | 98.2 | 92.6 | 105 | 104 | 100 | 102 | 95 | 107 | 95 | 106 | 102 | 97.3 | 96.8 | 95.3 | 97.9 | 101 | 95.9 | 104 | 95.2 | 102 | 102 | 103 | > 10 | > 10 | > 10 | > 10 | > 10 | 0 | 0 | 0 | 0 | 0
4 | CC(C)(C)c1cc(C=C(C#N)C#N)cc(C(C)(C)C)c1O [tyrphostin-A9] | 96.5 | 98.3 | 95.8 | 70.1 | 20.5 | 97.4 | 96.3 | 99 | 92.8 | 44.1 | 104 | 101 | 98.7 | 74.3 | 8.9 | 106 | 97.9 | 100 | 90.6 | 22.4 | 100 | 106 | 97.8 | 97.2 | 17.5 | 1.29 | 2.12 | 1.45 | 2.18 | 2.91 | 8.1 | 4.2 | 8.9 | 5.9 | 5
5 | CCN(CC)CCOC(=O)c1cc(Cl)c(N)cc1OC [SDZ-205-557] | 95.5 | 101 | 97.9 | 106 | 104 | 107 | 101 | 88 | 96.6 | 90.1 | 105 | 97.1 | 90.6 | 93.3 | 102 | 98.9 | 102 | 97 | 103 | 98.3 | 106 | 104 | 99 | 94.8 | 97.3 | > 10 | > 10 | > 10 | > 10 | > 10 | 0 | 0 | 0 | 0 | 0
6 | O=C(Nc1nc(-c2cc(Cl)cs2)c(N2CCN(C3CCCCC3)CC2)s1)c1cnc(N2CCC(C(=O)O)CC2)c(Cl)c1 [avatrombopag] | 94.9 | 88.7 | 102 | 105 | 107 | 96.2 | 100 | 93.9 | 102 | 88.9 | 99.4 | 109 | 115 | 98 | 110 | 103 | 95.5 | 104 | 103 | 95.1 | 100 | 95 | 102 | 102 | 92 | > 10 | > 10 | > 10 | > 10 | > 10 | 0 | 0 | 0 | 0 | 0
